32 molecules from ChEMBL document CHEMBL4602674, “19-nor-, 20-nor-, and tetranor-Halimane-Type Furanoditerpenoids from Croton crassifolius” (J Nat Prod, 2020) can be followed below.

Data set [1] has as its system RAW264.7. The experiment in a line: Inhibition of LPS-induced NO production in mouse RAW264.7 cells preincubated for 30 mins followed by LPS stimulation and measured after 24 hrs by Griess assay. Format: functional, cell-based. A general note: Griess reagent forms a coloured azo dye with nitrite.
In data set [2] the test system is RAW264.7. The experiment in a line: Cytotoxicity against mouse RAW264.7 cells at 50 uM after 48 hrs by MTT assay. The format is cell-based. As to conditions: raw264.7, 48 h. For orientation: Formazan colour is commonly taken as a measure of viable cells.

The term IC50 denotes the concentration that inhibits the measured activity by half. Higher therefore signals a need for much substance. In the data set with RAW264.7 [1], `COC(=O)[C@@]1(COC(C)=O)CCCC2=C1CC[C@@H](C)[C@]21C[C@@H](c2ccoc2)OC1=O` showed an IC50 greater than 50 µM. In the data set with RAW264.7 [2], the Activity entry was “Non-Toxic”. The corresponding values for `C[C@@H]1C[C@@H]2OC(=O)C3=C2[C@](O)(CCC3)[C@@]12C[C@@H](c1ccoc1)OC2=O` are greater than 50 µM and “Non-Toxic”. In the same order, the values of `COC(=O)[C@@]1(CO)CCCC2=C1[C@@H](O)C[C@@H](C)[C@]21C[C@@H](c2ccoc2)OC1=O` are greater than 50 µM and “Non-Toxic”. In the same order, the values of `COC(=O)C1(C(=O)OC)CCCC2=C1[C@@H](OC(C)=O)C[C@@H](C)[C@]21C[C@@H](c2ccoc2)OC1=O` are greater than 50 µM and “Non-Toxic”. In the data set with RAW264.7 [1], `C[C@@H]1CCC2=C(C[C@@H]3C[C@]2(C)C(=O)O3)[C@@]12C=C(c1ccoc1)OC2=O` yielded an IC50 greater than 50 µM. Besides, the Activity entry in the data set on RAW264.7 [2] is given as “Non-Toxic”. As for `C[C@@H]1CCC2=C(C[C@H]3C[C@]2(C)C(=O)O3)[C@@]1(C)CC(=O)c1ccoc1`, the IC50 in the data set with RAW264.7 [1] is greater than 50 µM. In the data set with RAW264.7 [2], the Activity entry was “Non-Toxic”.

`C[C@@H]1C[C@@H](O)C2=C(C[C@@H]3C[C@]2(C)C(=O)O3)[C@@]12C[C@@H](c1ccoc1)OC2=O` gave an IC50 in the data set on RAW264.7 [1] greater than 50 µM. Moreover, the Activity result in the data set on RAW264.7 [2] is reported as “Non-Toxic”.

With `C[C@@H]1C[C@@H]2OC(=O)C3=C2[C@H](CCC3)[C@@]12C[C@@H](c1ccoc1)OC2=O` [TEUCVIN], in the data set on RAW264.7 [1], the half-maximal inhibitory concentration (IC50) is greater than 50 µM. The Activity result in the data set with RAW264.7 [2] is “Non-Toxic”.

In the case of `COC(=O)[C@@]1(COC(C)=O)CCCC2=C1[C@@H](O)C[C@@H](C)[C@]21C[C@@H](c2ccoc2)OC1=O`, in the data set on RAW264.7 [1], the IC50 is greater than 50 µM. Also, the Activity entry in the data set with RAW264.7 [2] is on record as “Non-Toxic”.

`COC(=O)[C@]1(C)C2=C(CC[C@H]1O)[C@@]1(C[C@@H](c3ccoc3)OC1=O)[C@H](C)C[C@@H]2OC(C)=O`: the IC50 with RAW264.7 [1] was greater than 50 µM. The Activity result with RAW264.7 [2] was “Non-Toxic”. In the same order, the values of `COC(=O)[C@@]1(C)C2=C(CC[C@H]1OC(C)=O)[C@@]1(C[C@@H](c3ccoc3)OC1=O)[C@H](C)CC2` [CRASSIFOLIN F] are greater than 50 µM and “Non-Toxic”. In the same order, the values of `COC(=O)[C@@]1(C)CC(=O)C=C2[C@@](C)(CC(=O)c3ccoc3)[C@H](C)CC[C@]21O` are greater than 50 µM and “Non-Toxic”. The corresponding values for `C[C@@H]1C[C@H]2OC(=O)C3=C2[C@@H](CCC3)[C@@]12C[C@@H](c1ccoc1)OC2=O` are greater than 50 µM and “Non-Toxic”. In turn, `COC(=O)[C@]1(C)CCCC2=C1CC[C@@H](C)[C@]2(C)CCC1=CC(=O)OC1` returned an IC50 in the data set on RAW264.7 [1] greater than 50 µM. Besides, the Activity entry in the data set with RAW264.7 [2] was “Non-Toxic”. The corresponding values for `COC(=O)[C@@]1(C)CCCC2=C1[C@@H](O)C[C@@H](C)[C@]21C[C@@H](c2ccoc2)OC1=O` are greater than 50 µM and “Non-Toxic”.

In the case of `CO[C@@H]1C[C@@H](C)[C@](C)(CC(=O)c2ccoc2)C2=C1[C@]1(C)C[C@H](C2)OC1=O`, the IC50 in the data set with RAW264.7 [1] was greater than 50 µM. In addition, the Activity result in the data set with RAW264.7 [2] was “Non-Toxic”. In the same order, the values of `Cc1cc(O)cc2c1CC[C@@H](C)[C@]2(C)CC(=O)c1ccoc1` are 23.7 µM and “Non-Toxic”.

For `CC1=CC(=O)C2=C3[C@@]1(O)CC[C@@H](C)[C@]3(C)C=C2c1ccoc1`, the IC50 in the data set with RAW264.7 [1] amounted to 17.2 µM. In addition, the Activity result with RAW264.7 [2] is given as “Non-Toxic”. For `COC(=O)C1(C(=O)OC)C2=C(CC[C@@H]1OC(C)=O)[C@@]1(C[C@@H](c3ccoc3)OC1=O)[C@H](C)CC2=O`, in the data set with RAW264.7 [1], the IC50 is greater than 50 µM. Besides, the Activity result in the data set with RAW264.7 [2] is on record as “Non-Toxic”. The corresponding values for `COC(=O)[C@@]1(CO)CCCC2=C1[C@@H](OC(C)=O)C[C@@H](C)[C@]21C[C@@H](c2ccoc2)OC1=O` are greater than 50 µM and “Non-Toxic”. In the same order, the values of `COC(=O)[C@@]1(C)CC(=O)C2=C3[C@@](C)(CC2=O)[C@H](C)CC[C@]31O` are greater than 50 µM and “Non-Toxic”. In the same order, the values of `COC(=O)C1(C(=O)OC)CCCC2=C(CC(=O)c3ccoc3)[C@H](C)CC=C21` are greater than 50 µM and “Non-Toxic”. As to `COC(=O)[C@]1(C)CCCC2=C1C(=O)C[C@@H](C)[C@]2(C)CCC1=CC(=O)OC1`, the IC50 in the data set with RAW264.7 [1] was greater than 50 µM. The Activity entry in the data set with RAW264.7 [2] was “Non-Toxic”. In the same order, the values of `COC(=O)[C@@]1(C)C2=C(CC[C@H]1OC(C)=O)[C@@]1(C[C@@H](c3ccoc3)OC1=O)[C@H](C)CC2=O` are greater than 50 µM and “Non-Toxic”. The corresponding values for `COC(=O)[C@@]1(C)C2=C(CC[C@H]1O)[C@@]1(C[C@@H](c3ccoc3)OC1=O)[C@H](C)CC2` are greater than 50 µM and “Non-Toxic”. In the same order, the values of `COC(=O)[C@@]1(CO)CCCC2=C1C(=O)C[C@@H](C)[C@]21C[C@@H](c2ccoc2)OC1=O` are greater than 50 µM and “Non-Toxic”.

`COC(=O)[C@@]1(C)CCCC2=C1[C@@H](OC(C)=O)C[C@@H](C)[C@]21C[C@@H](c2ccoc2)OC1=O` came in with an IC50 in the data set on RAW264.7 [1] greater than 50 µM. Moreover, the Activity entry in the data set on RAW264.7 [2] was “Non-Toxic”. Take `CO[C@@]12C[C@@H](C)[C@]3(C[C@@H](c4ccoc4)OC3=O)[C@@H]3CCCC(=C31)C(=O)O2`: in the data set on RAW264.7 [1], the IC50 is greater than 50 µM. Also, the Activity result with RAW264.7 [2] is recorded as “Non-Toxic”. The corresponding values for `C[C@@H]1C[C@@H]2OC(=O)[C@]3(O)CCCC(=C23)[C@@]12C[C@@H](c1ccoc1)OC2=O` are greater than 50 µM and “Non-Toxic”.

On to `COC(=O)C1(C(=O)OC)CCCC2=C1[C@@H]1C[C@@H](C)[C@@]2(CC(=O)c2ccoc2)C(=O)O1`, for which, in the data set on RAW264.7 [1], the IC50 was greater than 50 µM. The Activity result in the data set on RAW264.7 [2] was “Non-Toxic”.

Turning to `O=c1c(O)c(-c2ccc(O)c(O)c2)oc2cc(O)cc(O)c12` [QUERCETIN], half-maximal inhibition in the data set with RAW264.7 [1] (IC50) was put at 15.1 µM.

`C[C@@H]1C[C@H]2OC(=O)[C@@]3(CO)CCCC(=C23)[C@@]12C[C@@H](c1ccoc1)OC2=O`: the IC50 in the data set with RAW264.7 [1] was greater than 50 µM. Moreover, the Activity result in the data set on RAW264.7 [2] is recorded as “Non-Toxic”.
